Results as given in patent US7259171B2, “Di and trifluoro-triazolo-pyridines anti-inflammatory compounds” (Pfizer Inc., priority 2002, dated 2007).

Compound `CC(C)c1nnc2ccc(-c3ocnc3-c3c(F)cccc3F)cn12` [Example 1, 6-[4-(2,6-Difluoro-phenyl)-oxazol-5-yl]-3-isopropyl-[1,2,4]triazolo[4,3-a]pyridine] has a melting point of 175.7 to 176.2 °C.
